Laboratory results reported in patent publication US20070265211A1, “Novel composition and method effective in inhibiting the atherogenic process” (priority 2006, published 2007).

Key:
[1] = system: vascular smooth muscle cells (VSMC) from guinea-pig aorta; conditions: 0.5-2.0 mM ascorbate; direct and matrix-mediated effects; cited from earlier work
[2] = system: Human aortic smooth muscle cells; experiment: SMC proliferation by [3H]-thymidine incorporation into cellular DNA; assay type: cell-based; conditions: physiologically relevant concentration
Protocol: Human aortic smooth muscle cells (SMC, obtained from Clonetics) were cultured in DMEM (Dulbecco's modified Eagle's medium), supplemented with 10% fetal bovine serum, penicillin (100 μg/ml) and streptomycin (100 μg/ml) at 37° C. in a humidified atmosphere containing 5% CO2, and were split 1:3 to 1:5 upon reaching the confluence. SMC at passages 5-8 were used in experiments. […] SMC proliferation was assayed by [3H]-thymidine incorporation into cellular genetic material. Cells were plated in 24-well plates at a density of 10,000 cells per cm^2 in 0.5 ml of DMEM supplemented with 2% FBS. The attached cells were supplied every 24 hours with fresh growth medium plus additions, as specified in the protocols. Test agents included the nutrient mixture and individual components. […] Cell proliferation was measured 3 days later by the addition of 1 pCi/ml [3H]-thymidine to the cell culture for the last 4 hours of the experiment. […] Samples were mixed with scintillation fluid and counted using a liquid scintillation counter (model 6500 LS, Beckman Instruments, USA). Cellular DNA-incorporated radioactivity was expressed as d/min per well. In some wells cells were stained with Hematoxylin/Eosin and cell nucleus were counted under microscope in standard way chosen views covering total 65% of the well area. Cell counting data expressed as cell number per well.

| SMILES | Proliferation of VSMC from guinea-pig aorta [1] | Cultured human aortic SMC growth rate (rate of cellular DNA synthesis) [2] |
| --- | --- | --- |
| O=C1O[C@H]([C@@H](O)CO)C(O)=C1O [ascorbate, ascorbic acid] | dose-dependent decreased proliferation | – |
| O=C(O[C@@H]1Cc2c(O)cc(O)cc2O[C@@H]1c1cc(O)c(O)c(O)c1)c1cc(O)c(O)c(O)c1 [epigallocatechin gallate] | – | significantly reduced |
